From patent publication US7829560B2, “1,4-disubstituted naphthalenes as inhibitors of P38 MAP kinase” (Arqule, Inc., priority 2004, dated 2010)

Target: T1, p38α (Homo sapiens, UniProt Q16539)
T1 construct: p38 MAP Kinases are recombinant human full-length proteins with an amino-terminal GST fusion; GST (N); purchased Upstate Biotechnology Inc; host or cells: E. coli
Assay: p38 MAP Kinase assay: inhibition of ATF2 phosphorylation, ELISA
Assay type: biochemical
Conditions: for inhibition at 10 µM: substrate ATF2, read-out: [ENZ] P38 ALPHA, PCT INH, ELISA (10 uM;ATF2) (Percent); for IC50: ATF2 phosphorylation, read-out: [ENZ] P38 ALPHA, IC50, ELISA
Text: Compounds of the invention are screened for the ability to inhibit ATF2 phosphorylation by p38 MAP Kinase in vitro. The ability of compounds to inhibit ATF2 phosphorylation in this in vitro assay is correlated with the inhibition of p38 MAP Kinase and TNFα expression in vivo, and is therefore an indicator of potential in vivo therapeutic activity (Raingeaud, J., et al, J. Biol. Chem., 270: 7420-7426, 1995, Brinkman, M. N., et al, J. Biol. Chem. 274: 30882-30886, 1999 and Fuchs, S. Y. et al, J. Biol. Chem. 275: 12560-12564, 2000).
Materials: All kinases and the substrate ATF2 are acquired from Upstate Biotechnology Inc. p38 MAP Kinases are recombinant human full-length proteins with an amino-terminal GST fusion, expressed in and purified from E. coli. ATF2 is a GST fusion protein containing amino acids 19-96 of human ATF2 expressed in E. coli. All proteins are aliquoted and stored at −80° C.
Methods: p38 MAP Kinase assays are performed using an assay buffer containing 25 mM HEPES, pH 7.5, 10 mM MgCl2, 2 mM DTT, 20 mM β-glycerophosphate, 0.1 mM Na3VO4, 40 μM ATP and 1.25 μM of ATF2 and in the absence or presence of 1% human serum albumin, Method I and II, respectively, with 0.4-6 ng of protein depending on the kinase used. Compounds are serially diluted in DMSO and 2 μL of test compound at 25× final concentration is used. The vehicle control receives DMSO only. Test compounds are pre-incubated with 20 μl of enzyme in kinase buffer (25 mM HEPES, pH 7.5, 10 mM MgCl2, 2 mM DTT, 20 mM β-glycerophosphate, 0.1 mM Na3VO4 in the absence or presence of 1% human serum albumin, Method I and II, respectively) at room temperature for 15 minutes. […] The reactions are incubated for 30 minutes at 37° C. and terminated by the addition of 18 μl of 200 mM EDTA. An ELISA method (I or II) is used to measure the phosphorylation of ATF2 at Thr 69. Method I: 96-well high binding plates (Corning 3369) are coated with 50 μl of kinase reaction for 1 hour at 37° C. The coated plates are washed with 200 μl washing buffer (25 mM Tris HCl, pH 8.3, 192 mM glycine, 0.1% SDS and 0.05% Tween-20) three times. The plates are then washed three times with SuperBlock in TBS (Pierce, 37535). After blocking, plates are incubated with 50 μl of rabbit anti-phospho-ATF2 antibody (Cell Signaling, 9221L, 1:500) for 30 minutes at 37° C. Plates are washed three times with washing buffer prior to incubation with 50 μl HRP-conjugated goat anti-rabbit antibody (Cell Signaling, 7074, 1:500) for 30 minutes at 37° C. Plates are then washed three times with washing buffer before incubation with 50 μl of Ultra TMB-ELISA (Pierce, 34028) for 8 minutes at room temperature. Finally, 50 ul of phosphoric acid (1 M) is added to stop reactions and plate absorbance is read at 450 nm on a SpectraMax 250 plate reader. Method II: 96-well high binding plates (Corning 3369) are coated with 400 ng of monoclonal antibody against GST-tag (Cell signaling) in 100 μl containing sodium borate (pH 8.3) for 90 minutes at 37° C. The plates are washed with 200 μl washing buffer (25 mM Tris HCl, pH 7.2, 150 mM NaCl and Tween-20) three times and blocked with 200 μl of 5% nonfat milk for 30 minutes at room temperature. The plates are washed three times with washing buffer, 50 μl of stopped kinase reaction are added to each well and incubated for 80 minutes at 37° C. The plates are washed three times with 200 μl washing buffer, and the plates are incubated with 50 μl of rabbit anti-phospho-ATF2 antibody (Cell Signaling, 9221L, 1:500) for 30 minutes at 37° C. Plates are washed three times with washing buffer prior to incubation with 50 μl HRP-conjugated goat anti-rabbit antibody (Cell Signaling, 7074, 1:500) for 30 minutes at 37° C. Plates are washed three times with washing buffer before incubation with 50 μl of Ultra TMB-ELISA (Pierce, 34028) for 25 minutes at room temperature. Finally, 50 μl of phosphoric acid (1 M) is added to stop reactions and plate absorbance is read at 450 nm on a SpectraMax 250 plate reader. […]

T1 sequence (Q16539 whole entry, the tested form may be a part): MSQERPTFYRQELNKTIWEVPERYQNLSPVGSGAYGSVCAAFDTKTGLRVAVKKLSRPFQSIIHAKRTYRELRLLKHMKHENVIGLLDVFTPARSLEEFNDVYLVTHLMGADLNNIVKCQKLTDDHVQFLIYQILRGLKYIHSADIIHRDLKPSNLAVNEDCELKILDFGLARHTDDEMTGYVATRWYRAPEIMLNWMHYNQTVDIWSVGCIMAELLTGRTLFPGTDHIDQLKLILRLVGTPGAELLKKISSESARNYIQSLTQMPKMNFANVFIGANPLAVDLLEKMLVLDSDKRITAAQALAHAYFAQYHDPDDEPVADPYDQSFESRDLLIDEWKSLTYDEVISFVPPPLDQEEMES

| inhibition at 10 µM [%] | IC50 [µM] | Compound |
| --- | --- | --- |
| 20 | > 100 | O=C(Nc1ccc(OCCN2CCOCC2)c2ccccc12)c1cccc(N2CCCCCCC2)n1 [Compound B135] |
| 10 |  | CC(=O)N1CCN(c2cccc(C(=O)Nc3ccc(OCCN4CCOCC4)c4ccccc34)n2)CC1 [Compound B136] |
| 32 | > 100 | CN(c1cccc(C(=O)Nc2ccc(OCCN3CCOCC3)c3ccccc23)n1)C1CCCCC1 [Compound B137] |
| -36 |  | O=C(Nc1ccc(OCCN2CCOCC2)c2ccccc12)c1cccc(N2CCSC2)n1 [Compound B138] |
| 7 |  | O=C(Nc1ccc(OCCN2CCOCC2)c2ccccc12)c1cccc(N2CCN(c3ccc(F)cc3)CC2)n1 [Compound B139] |
| 4 |  | O=C(Nc1ccc(OCCN2CCOCC2)c2ccccc12)c1cccc(N2CCC(Cc3ccccc3)CC2)n1 [Compound B140] |
| 13 |  | CC1CC(C)CN(c2cccc(C(=O)Nc3ccc(OCCN4CCOCC4)c4ccccc34)n2)C1 (stereo not drawn) [Compound B141] |
| 33 | > 100 | O=C(Nc1ccc(OCCN2CCOCC2)c2ccccc12)c1cccc(N2CCCCC2)n1 [Compound B142] |
| 32 | > 100 | CC1CCN(c2cccc(C(=O)Nc3ccc(OCCN4CCOCC4)c4ccccc34)n2)CC1 [Compound B143] |
| 17 |  | CC1CCCN1c1cccc(C(=O)Nc2ccc(OCCN3CCOCC3)c3ccccc23)n1 (stereo not drawn) [Compound B144] |
| 11 |  | O=C(Nc1ccc(OCCN2CCOCC2)c2ccccc12)c1cccc(N2CCC(CO)CC2)n1 [Compound B145] |

More lines, now with the values behind:

| Compound | inhibition at 10 µM [%] | IC50 [µM] |
| --- | --- | --- |
| COc1cc(-c2cccc(C(=O)Nc3ccc(OCCN4CCOCC4)c4ccccc34)c2)cc(OC)c1OC [Compound B112] | 15 | > 100 |
| Cc1cc(C)cc(-c2cccc(C(=O)Nc3ccc(OCCN4CCOCC4)c4ccccc34)c2)c1 [Compound B113] | 29 | > 10 |
| Cc1ccc(-c2cccc(C(=O)Nc3ccc(OCCN4CCOCC4)c4ccccc34)c2)c2ccccc12 [Compound B114] | 11.3 |  |
| O=C(Nc1ccc(OCCN2CCOCC2)c2ccccc12)c1cccc(-c2ccccc2Oc2ccccc2)c1 [Compound B115] | 10 |  |
| CSc1ccccc1-c1cccc(C(=O)Nc2ccc(OCCN3CCOCC3)c3ccccc23)c1 [Compound B116] | 54 | 2.74 |
| CCCCc1ccc(-c2cccc(C(=O)Nc3ccc(OCCN4CCOCC4)c4ccccc34)c2)cc1 [Compound B117] | 4 |  |
| O=C(Nc1ccc(OCCN2CCOCC2)c2ccccc12)c1cccc(-c2ccc(C3CCCCC3)cc2)c1 [Compound B118] | 0 |  |
| O=C(Nc1ccc(OCCN2CCOCC2)c2ccccc12)c1cccc(-c2cccc(OCc3ccccc3)c2)c1 [Compound B119] | 11 | > 100 |
| O=C(Nc1ccc(OCCN2CCOCC2)c2ccccc12)c1cccc(-c2cc(Cl)cc(Cl)c2Cl)c1 [Compound B120] | 39 | > 100 |
| O=C(Nc1ccc(OCCN2CCOCC2)c2ccccc12)c1ccnc(N2CCc3ccccc3C2)c1 [Compound B121] | 31.5 |  |
| O=C(Nc1ccc(OCCN2CCOCC2)c2ccccc12)c1ccnc(N2CCC(Cc3ccccc3)CC2)c1 [Compound B124] | 7 |  |
| O=C(Nc1ccc(OCCN2CCOCC2)c2ccccc12)c1ccnc(N2CCC(N3CCCC3)CC2)c1 [Compound B125] | 23.5 |  |
| O=C(Nc1ccc(OCCN2CCOCC2)c2ccccc12)c1ccnc(N2CCC(N3CCCCC3)CC2)c1 [Compound B129] | 19.5 |  |
| O=C(Nc1ccc(OCCN2CCOCC2)c2ccccc12)c1ccnc(N2CCC(CO)CC2)c1 [Compound B131] | 34 |  |
| O=C(Nc1ccc(OCCN2CCOCC2)c2ccccc12)c1ccnc(N2Cc3ccccc3C2)c1 [Compound B132] | 36 |  |
| O=C(Nc1ccc(OCCN2CCOCC2)c2ccccc12)c1cccc(N2CCOCC2)n1 [Compound B134] | 20 |  |
